Test results taken from patent EP4100520B1, “SYSTEM AND METHOD OF TR[…] STATES INFORMATION, […] MACR[…]” (Beznosiuk, Jaroslaw, priority 2020, dated 2021).

Tests used:
human muscle enolase = target: T1, human muscle enolase (Homo sapiens, UniProt P13929); test: Enolase glycation with methylglyoxal: specific activity of enolase (absorbance increase at 240 nm, 2-PGA to PEP); format: biochemical; conditions: for K(1)i / K(1)0 / K(1)i / K(2)i: K1, without entanglement elements; for K(1)i / K(1)0 / Wi / W0: activity relative to own initial value; for Wi / W0 / Wi / K(2)i: W, with entanglement elements
T1 construct: Enolase was isolated from human muscle tissue using own method; from tissue; host or cells: human muscle tissue
Method: Methylglyoxal was chosen as an enolase modifying agent because it is formed in the body mainly as a product of defective glycolysis or in the lipid peroxidation process, as well as a result of disorders of defence systems against carbonyl and oxidative stress. Simultaneously, enolase glycation was performed without exposure to the second entanglement elements 9, 9a of the second and third pair of entanglement elements. The second control was a sample of enolase that was not glycated and not treated with the second entanglement elements 9, 9a of the second and third pair of entanglement elements.
The second entanglement elements 9, 9a of the second and third pair of entanglement elements were aluminium plates, 1 cm by 2 cm in size, which were kept for 30 min at room temperature prior to testing. Enolase was isolated from human muscle tissue using own method (Bednarz-Misa I, Pietkiewicz J, et al., 2009. Adv.Clin.Exp.Med. Vol.18 no.1; p.71-78). The enzyme stock solution was a preparation of 7.5 mM of imidazole-HCl, pH 6.8, in stabilizing buffer, containing 2.5 mM of MgSO4, 50 mM of NaCl, 50% of glycerol (formulation stored at 4°C). The concentration of enolase in the stock solution Ro was 8 mg/ml (87 µM), while the enzyme specific activity was 25 IU/mg. In glycation mixtures, the enzyme concentration was 1 mg/ml (Ro diluted 8x with PBS buffer, pH 7.4).
In the experiment, a standard test buffer of 50 mM imidazole-HCl pH 6.8.3 mM MgSO4, 0.4M KCI and a substrate of 2-PGA (sodium salt) dissolved in H2O - a stock solution R0 at a concentration of 58.5 mM was used. 2-PGA in the enzyme assay was used at a standard concentration of 1 mM.
Protein concentration was determined spectrophotometrically by measuring the absorbance of enolase solution at 280 nm wavelength using quartz cuvettes. In the present system, quartz cuvettes constituted the end tanks 10 made of polar dielectric 5. Enolase activity was determined by monitoring in a Jasco UV-Vis V-530 spectrophotometer within 60 seconds, the increase in absorbance of the test solution at 240 nm wavelength (a measure of reaction product production, PEP). The specific activity of the enzyme was expressed in international units relative to 1 mg of protein (Bednarz-Misa I, Pietkiewicz J, et al., 2009. Adv.Clin.Exp.Med. 18(1);71-78).
Two glycation systems were prepared using a large excess of methylglyoxal in relation to enolase (ratio 1:300 mol:mol) - in accordance with the conditions according to [Pietkiewicz J. et al., 2011, Protein J. 30 (3):149-158]: • a) Substantive test: glycation of enolase treated with second entanglement elements 9, 9a of the second and third pair of entanglement elements.
175 µl of PBS pH 7.4 buffer were placed in the quartz cuvette, 20 µl of enolase stock solution and 5.5 µl of 0.8% aqueous methylglyoxal solution were added. In such a system, the effect of quantum information transmitted from source medium 2 (silicon monocrystal) on the modification of the glycolysis/gluconeogenesis enzyme enolase by methylglyoxal as a reactive glycating agent was studied.
In order to transmit quantum information from the source medium 2, the mixture was subjected for 3 hours to two second entanglement elements 9, 9a of the second and third pair of entanglement elements (which adhered to both sides of the cuvette). The system was kept at room temperature. b) Control test 1: glycation of enolase not treated with second entanglement elements 9, 9a of the second and third pairs of entanglement elements.
The reaction system was prepared as a substantive test (a). Incubation at room temperature occurred at the same time, without contact with the second entanglement elements 9, 9a of the second and third pair of entanglement elements (3 m distance from the substantive test). c) Control test 2: Unmodified enolase, not treated with second entanglement elements 9, 9a of the second and third pair of entanglement elements. […]

enolase = target: T2, enolase (Homo sapiens, UniProt P13929); test: Electrophoresis to detect high molecular weight advanced glycation products (AGE) of enolase; conditions: 3 h glycation
T2 construct: Enolase was isolated from human muscle tissue using own method; from tissue; host or cells: human muscle tissue
Method: The glycation process was interrupted after 3 hours by adding an aqueous solution of lysine at a concentration of 4 mg/ml to methylglyoxal samples (excess lysine bound unreacted methylglyoxal).
In order to detect the presence of high molecular weight products of advanced glycation of enolase (AGE), samples of each mixture were electrophoresized. Electrophoresis conditions according to [Pietkiewicz J. et al., 2011, Protein J. 30 (3):149-158]. 12 ug of protein from the analyzed samples was applied to the gel paths.

[1] = relative to unmodified enolase control K2 at same time, 1 h
[2] = relative to unmodified enolase control K2 at same time, 2 h
[3] = relative to unmodified enolase control K2 at same time, 3 h

T1 sequence (P13929 whole entry): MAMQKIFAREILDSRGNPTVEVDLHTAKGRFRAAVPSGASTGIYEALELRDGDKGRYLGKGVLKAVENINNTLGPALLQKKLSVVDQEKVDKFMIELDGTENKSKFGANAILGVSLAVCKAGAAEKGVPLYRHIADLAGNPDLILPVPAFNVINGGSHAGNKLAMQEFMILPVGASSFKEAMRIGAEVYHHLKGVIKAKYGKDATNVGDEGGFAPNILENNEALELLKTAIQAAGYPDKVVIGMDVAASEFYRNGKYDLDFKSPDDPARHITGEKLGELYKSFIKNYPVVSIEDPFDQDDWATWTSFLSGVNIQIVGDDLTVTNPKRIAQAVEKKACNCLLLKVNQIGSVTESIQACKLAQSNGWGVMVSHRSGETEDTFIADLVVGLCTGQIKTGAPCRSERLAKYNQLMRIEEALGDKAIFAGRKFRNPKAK
T2 sequence (P13929 whole entry): as above

Question: For `CC(=O)C=O` [methylglyoxal], which Activity (human muscle enolase; Control test 1 (K1): enolase + methylglyoxal (1:300 mol:mol), without entanglement elements, incubation time 0 h, room temperature) is on record?
Answer: The Activity was 24.6 IU/mg.

Question: What about the Activity (human muscle enolase; Control test 1 (K1): enolase + methylglyoxal, without entanglement elements, incubation time 1 h) of the same compound?
Answer: Its Activity is 21.37 IU/mg.

Question: And the Activity (human muscle enolase; Control test 1 (K1): enolase + methylglyoxal, without entanglement elements, incubation time 2 h)?
Answer: Its Activity is 19.15 IU/mg.

Question: And the Activity (human muscle enolase; Control test 1 (K1): enolase + methylglyoxal, without entanglement elements, incubation time 3 h)?
Answer: The Activity was 17.64 IU/mg.

Question: And the “K(1)i / K(1)0” value (human muscle enolase; 0 h)?
Answer: Its value is 100%.

Question: And the “K(1)i / K(1)0” value (human muscle enolase; 1 h)?
Answer: The value was 86.9%.

Question: What about the “K(1)i / K(1)0” value (human muscle enolase; 2 h) of the same compound?
Answer: Its value is 77.85%.

Question: And the “K(1)i / K(1)0” value (human muscle enolase; 3 h)?
Answer: Its value is 71.7%.

Question: What about the “K(1)i / K(2)i” value (human muscle enolase; activity relative to unmodified enolase control K2 at same time, 0 h) of the same compound?
Answer: Its value is 99.6%.

Question: What about the “K(1)i / K(2)i” value (human muscle enolase; [1]) of the same compound?
Answer: Its value is 93.8%.

Question: And the “K(1)i / K(2)i” value (human muscle enolase; [2])?
Answer: Its value is 88.8%.

Question: What about the “K(1)i / K(2)i” value (human muscle enolase; [3]) of the same compound?
Answer: Its value is 90.6%.

Question: And the Activity (human muscle enolase; Substantive test (W): enolase + methylglyoxal + entanglement elements, incubation time 0 h, room temperature)?
Answer: The Activity was 29.22 IU/mg.

Question: What about the Activity (human muscle enolase; Substantive test (W): enolase + methylglyoxal + entanglement elements, incubation time 1 h) of the same compound?
Answer: The Activity was 25.78 IU/mg.

Question: What about the Activity (human muscle enolase; Substantive test (W): enolase + methylglyoxal + entanglement elements, incubation time 2 h) of the same compound?
Answer: The Activity was 24.12 IU/mg.

Question: What about the Activity (human muscle enolase; Substantive test (W): enolase + methylglyoxal + entanglement elements, incubation time 3 h) of the same compound?
Answer: The Activity was 23.4 IU/mg.

Question: And the “Wi / W0” value (human muscle enolase; 0 h)?
Answer: Its value is 100%.

Question: What about the “Wi / W0” value (human muscle enolase; 1 h) of the same compound?
Answer: The value was 88.2%.

Question: And the “Wi / W0” value (human muscle enolase; 2 h)?
Answer: The value was 82.5%.

Question: And the “Wi / W0” value (human muscle enolase; 3 h)?
Answer: The value was 80.1%.

Question: And the “Wi / K(2)i” value (human muscle enolase; relative to unmodified enolase control K2 at same time, 0 h)?
Answer: Its value is 118.3%.

Question: What about the “Wi / K(2)i” value (human muscle enolase; [1]) of the same compound?
Answer: The value was 113.2%.

Question: And the “Wi / K(2)i” value (human muscle enolase; [2])?
Answer: Its value is 117.3%.

Question: What about the “Wi / K(2)i” value (human muscle enolase; [3]) of the same compound?
Answer: Its value is 120.1%.

Question: And the “activity of the glycated enzyme relative to unmodified control test” value (human muscle enolase; in the presence of entanglement elements, throughout the experiment (0-3 h))?
Answer: Its value is 113%-120.

Question: What about the “decrease in specific activity” value (human muscle enolase; sample K1, after 3 hours of glycation, without entanglement elements) of the same compound?
Answer: The value was “approx. 28%”.

Question: And the “AGE of Mw 180 and Mw 230 kDa” value (enolase; control test, glycation in the absence of entanglement elements (path 2, fig. 6))?
Answer: Its value is “observed”.

Question: What about the “AGE of Mw 180 and Mw 230 kDa” value (enolase; substantive test treated with entanglement elements (path 1, fig. 6)) of the same compound?
Answer: The value was “observed”.
